Data reported in publication PMC8342319, “Predicting blood-to-plasma concentration ratios of drugs from chemical structures and volumes of distribution in humans” (Molecular Diversity, 2021).
Like-named read-outs stand apart in the source and are kept apart here.

What was measured:
[1] = human
[2] = human, cited from earlier work
[3] = human, intravenous, cited from earlier work
[4] = intravenous, median if multiple values were reported, ref numbers in Table S1
[5] = median if multiple values were reported, ref numbers in Table S1
[6] = intravenous, median if multiple values reported, Reference of Table S1
[7] = median if multiple values reported, Reference of Table S1

Compound	in vivo MRT_(hr)_Human [1] [h]	in vivo Vd_(L/kg)_Human [2, 4] [L/kg]	in vivo CL_(L/hr/kg)_Human [3, 5] [L/h/kg]	in vivo Vd_(L/kg)_Human ([2]; in vivo, iv) [L/kg]	in vivo Vd_(L/kg)_Human [2, 6] [L/kg]	in vivo CL_(L/hr/kg)_Human [3, 7] [L/h/kg]
Cc1[nH]cnc1CN1CCc2c(c3ccccc3n2C)C1=O [Alosetron]	2.107	1.100	0.522	–	–	–
Cc1cc(=O)n(-c2ccccc2)n1C [Antipyrine]	21.354	0.820	0.038	–	–	–
Cn1c(=O)c2c(ncn2C)n(C)c1=O [Caffeine]	8.095	0.680	0.084	–	–	–
COCc1c(C(C)C)nc(C(C)C)c(/C=C/[C@@H](O)C[C@@H](O)CC(=O)O)c1-c1ccc(F)cc1 [Cerivastatin]	1.897	0.330	0.174	–	–	–
CN(C)CCCN1c2ccccc2Sc2ccc(Cl)cc21 [Chlorpromazine]	10.938	10.500	0.960	–	–	–
NS(=O)(=O)c1cc(C2(O)NC(=O)c3ccccc32)ccc1Cl (stereo not drawn) [Chlorthalidone]	43.333	3.900	0.046	–	–	–
CN/C(=N/CCSCc1nc[nH]c1C)NC#N [Cimetidine]	2.469	1.200	0.492	–	–	–
CN(C)CCCN1c2ccccc2CCc2ccc(Cl)cc21 [Clomipramine]	26.423	13.000	0.492	–	–	–
O=c1ccc2ccccc2o1 [Coumarin]	2.157	2.200	1.020	–	–	–
Cc1onc(-c2c(Cl)cccc2Cl)c1C(=O)N[C@@H]1C(=O)N2[C@@H]1SC(C)(C)[C@@H]2C(=O)O [Dicloxacillin]	0.917	0.110	0.108	–	–	–
C[C@H]1O[C@@H](O[C@H]2[C@@H](O)C[C@H](O[C@H]3[C@@H](O)C[C@H](O[C@H]4CC[C@@]5(C)[C@H](CC[C@@H]6[C@@H]5C[C@@H](O)[C@]5(C)[C@@H](C7=CC(=O)OC7)CC[C@]65O)C4)O[C@@H]3C)O[C@@H]2C)C[C@H](O)[C@@H]1O [Digoxin]	40.196	4.100	0.102	–	–	–
CN(C)CCC=C1c2ccccc2COc2ccccc21 [Doxepin]	14.286	12.000	0.840	–	–	–
CC[C@@H](CO)NCCN[C@@H](CC)CO [Ethambutol]	2.833	1.700	0.600	–	–	–
CN1CCN(c2c(F)cc3c(=O)c(C(=O)O)cn(CCF)c3c2F)CC1 [Fleroxacin]	10.764	1.550	0.144	–	–	–
OC(Cn1cncn1)(Cn1cncn1)c1ccc(F)cc1F [Fluconazole]	40.323	0.750	0.019	–	–	–
CN[C@@H]1CCc2[nH]c3ccc(C(N)=O)cc3c2C1 [Frovatriptan]	24.000	3.600	0.150	–	–	–
Nc1nc(O)c2ncn(COC(CO)CO)c2n1 [Ganciclovir]	3.623	1.000	0.240	–	–	–

Compound	in vivo MRT_(hr)_Human [1] [h]	in vivo Vd_(L/kg)_Human [2, 4] [L/kg]	in vivo CL_(L/hr/kg)_Human [3, 5] [L/h/kg]	in vivo Vd_(L/kg)_Human ([2]; in vivo, iv) [L/kg]	in vivo Vd_(L/kg)_Human [2, 6] [L/kg]	in vivo CL_(L/hr/kg)_Human [3, 7] [L/h/kg]
CN1C2CCCC1CC(NC(=O)c1nn(C)c3ccccc13)C2 (stereo not drawn) [Granisetron]	6.777	3.700	0.546	–	–	–
CC(C)(C)NC(=O)[C@@H]1CN(Cc2cccnc2)CCN1C[C@@H](O)C[C@@H](Cc1ccccc1)C(=O)N[C@H]1c2ccccc2C[C@H]1O [Indinavir]	0.759	0.820	1.080	–	–	–
C[C@H]1COc2c(N3CCN(C)CC3)c(F)cc3c(=O)c(C(=O)O)cn1c23 [Levofloxacin]	37.281	4.250	0.114	–	–	–
CCCCc1nc(Cl)c(CO)n1Cc1ccc(-c2ccccc2-c2nn[nH]n2)cc1 [Losartan]	0.752	0.370	0.489	–	–	–
CC(C)Oc1ccccc1N1CCN(Cc2cccc(C(=O)N3CCCCC3)c2)CC1 [Mazapertine]	4.160	1.540	0.370	–	–	–
CCN(CC)CCNC(=O)c1cc(Cl)c(N)cc1OC [Metoclopramide]	9.357	3.200	0.342	–	–	–
Cc1ccccc1N1C(=O)c2cc(S(N)(=O)=O)c(Cl)cc2NC1C (stereo not drawn) [Metolazone]	19.048	1.600	0.084	–	–	–
Cc1ncc([N+](=O)[O-])n1CCO [Metronidazole]	7.843	0.400	0.051	–	–	–
CC(C)(O)c1ccccc1CC[C@@H](SCC1(CC(=O)O)CC1)c1cccc(/C=C/c2ccc3ccc(Cl)cc3n2)c1 [Montelukast]	3.676	0.150	0.041	–	–	–
COC(=O)C1=C(C)NC(C)=C(C(=O)OCC(C)C)C1c1ccccc1[N+](=O)[O-] (stereo not drawn) [Nisoldipine]	6.111	5.500	0.900	–	–	–
O=C1CN=C(c2ccccc2)c2cc([N+](=O)[O-])ccc2N1 [Nitrazepam]	32.946	–	0.052	1.700	–	–
CNCCC=C1c2ccccc2CCc2ccccc21 [Nortriptyline]	36.667	22.000	0.516	–	–	–
CC1COc2c(N3CCN(C)CC3)c(F)cc3c(=O)c(C(=O)O)cn1c23 (stereo not drawn) [Ofloxacin]	10.667	1.600	0.150	–	–	–
Cc1nccn1CC1CCc2c(c3ccccc3n2C)C1=O (stereo not drawn) [Ondansetron]	5.172	1.800	0.354	–	–	–
CCN1CCC[C@H]1CNC(=O)c1c(OC)ccc(Br)c1OC [Remoxipride]	6.373	–	–	–	0.650	0.102
O=C(O)CCCCO/N=C(/c1cccnc1)c1cccc(C(F)(F)F)c1 [Ridogrel]	6.825	–	–	–	0.430	0.063
CCN(CC)CCNC(=O)c1ccc(NS(C)(=O)=O)cc1 [Sematilide]	3.694	–	–	–	0.820	0.222
